Assay results: patent US5362634A, “Process for producing A83543 compounds” (DowElanco, priority 1991, dated 1994)
In brackets after ≈: the same amount, converted by molar mass. Where two headings read alike, the source gives them in different places.

How the values were obtained:
[1] = tested on: neonate CBW (cotton bollworm) larvae; assay: Percent control of neonate CBW larvae by A83543 components, topical pipet method; type: in vivo, Heliothis zea; settings: for mortality at 0.5 ppm / mortality at 1 ppm / mortality at 5 ppm / mortality at 10 ppm: 24 h, read-out: Percent Control
Protocol: Each test compound was formulated by dissolving the compound in an acetone/alcohol (1:1) mixture containing 23 g of "Toximul R" (sulfonate/nonionic emulsifier blend) and 13 g of "Toximul S" (sulfonate/nonionic emulsifier blend) per liter. These mixtures were then diluted with water to give the indicated concentrations.
Additional insects were evaluated using similar formulations and evaluation procedures, with the exceptions noted.
After standard exposure periods, percent mortality was evaluated. The following abbreviations are used:
^1 Treatments with the same letter in parentheses are similar at the
^2 Topical pipet method with 20 larve/replicate and 4 replicates; one
day between treatment and observation.

[2] = tested on: fourth instar yellow fever mosquito larvae; assay: whole plant or invertebrate; set-up: species or system Aedes aegypti; settings: 24 hr; for mortality at 0.312 ppm: Aedes aegypti, read-out: Percent Control
Description: (§1) The A83543 components were active against yellow fever mosquito (Aedes aegypti) larvae in standard in vitro mosquito larvicide tests.
^a At 24 hr when treated at 0.312 ppm

[3] = tested on: adult stable fly (ASF); assay: In vitro efficacy, exposure of ASF to chemically added serum samples; settings: Stomoxys calcitrans, read-out: Percent insect mortality
Description: (§2) ^1 Percent insect mortality following 24 to 48 hrs. in vitro exposure
(§3) to chemically added serum samples

[4] = tested on: blow fly larvae (LBF); assay: In vitro efficacy, exposure of LBF to chemically added serum samples
Description: as §2, §3

[5] = tested on: blow fly larvae (LBF); assay: Guinea pig systemic test, blow fly larvae; type: in vivo
Protocol: (§4) Adult guinea pigs are used in this test system. The compounds to be tested are dissolved in aqueous polyvinyl pyrrolidone or in polyethylene glycol 200, and an appropriate amount of the solution is administered either orally or by intraperitoneal injection.
(§5) Blood is drawn from the guinea pigs at 30 minutes except as noted, and the samples of blood are centrifuged. Dental wicks are saturated with the blood serum, and then exposed in Petri dishes to adult stable flies; blow fly larvae are exposed in test tubes. After 24 and 48 hours, the insects are examined, and the number of dead are counted. The results of the tests are recorded as the percent of the insects which are killed.

[6] = tested on: adult stable fly (ASF); assay: Guinea pig systemic test, adult stable fly; type: in vivo, Stomoxys calcitrans
Protocol: as §4, §5

[7] = tested on: Spodoptera eridania; assay: Outdoor pot tests against Southern armyworm; type: in vivo
Description: Table XV compares the effectiveness and persistence of A83543A treatment with that of methomyl in outdoor pot tests against Southern armyworm.

[8] = tested on: CRW (Southern corn rootworm); assay: LC50 against CRW; type: in vivo, Diabrotica undecimpunctata howardi; settings: rate in soil by wt.
Description: (§6) ^a Corn rootworm rate in soil by wt.; all others as spray

[9] = tested on: Grain Aphid; assay: LC50 against Grain Aphid; type: in vivo; settings: Sitobion avenae; spray concentration
Description: as §6

[10] = tested on: SM (twospotted spider mite); assay: LC50 against SM; type: in vivo; settings: Tetranychus urticae; spray concentration
Description: as §6

[11] = tested on: SAW (Southern armyworm); assay: LC50 against SAW, foliar; type: in vivo; settings: Spodoptera eridania, spray concentration
Description: as §6

[12] = tested on: CBW (cotton bollworm); assay: LC50 against CBW, contact; type: in vivo, Heliothis zea; settings: spray concentration
Description: as §6

[13] = tested on: first instar yellow fever mosquito larvae; assay: In vitro mosquito larvicide test, first instar; settings: Aedes aegypti, 24 h, lowest concentration with 100% inhibition after 24 hr, microtiter plates; read-out: Minimal Inhibitory Concentration
Description: as §1

[14] = 0.5 ppm, topical pipet, one day

## CC[C@H]1CCC[C@H](O[C@H]2CC[C@H](N(C)C)[C@@H](C)O2)CC(=O)C2=C[C@@H]3[C@@H](C=C[C@@H]4C[C@@H](O[C@@H]5O[C@@H](C)[C@H](OC)[C@@H](OC)[C@H]5OC)C[C@@H]34)[C@@H]2CC(=O)O1 [A83543F]
[1]; [14]
  mortality at 0.5 ppm: 0%
[1]; 1 ppm, topical pipet, one day
  mortality at 1 ppm: 0%
[1]; 5 ppm, topical pipet, one day
  mortality at 5 ppm: 0%
[1]; 10 ppm, topical pipet, one day
  mortality at 10 ppm: 95%
[2]
  mortality at 0.312 ppm: 0%

## CC[C@H]1CCC[C@H](O[C@H]2CC[C@@H](N(C)C)[C@@H](C)O2)[C@@H](C)C(=O)C2=C[C@@H]3[C@@H](C=C[C@@H]4C[C@@H](O[C@@H]5O[C@@H](C)[C@H](OC)[C@@H](OC)[C@H]5OC)C[C@@H]34)[C@@H]2CC(=O)O1 [A83543G]
[1]; 0.5 ppm, topical pipet, one day, 1440 min
  Percent Control: 0%
[1]; 1 ppm, topical pipet, one day
  Percent Control: 0%
[1]; 5 ppm, topical pipet, one day, 1440 min
  Percent Control: 20%
[1]; 10 ppm, topical pipet, one day, 1440 min
  Percent Control: 80%
[2]; 0.312 ppm
  Percent Control: 0%

## CO[C@@H]1[C@@H](OC)[C@H](C)O[C@@H](O[C@H]2C[C@H]3[C@@H]4C=C5C(=O)[C@H](C)[C@@H](O[C@H]6CC[C@H](N(C)C)[C@@H](C)O6)CCC[C@H](C)OC(=O)C[C@H]5[C@@H]4C=C[C@@H]3C2)[C@@H]1OC [A83543E]
[1]; topical
  mortality at 0.5 ppm: 28%
  mortality at 1 ppm: 58%
  mortality at 5 ppm: 100%
  mortality at 10 ppm: 100%
[2]
  mortality at 0.312 ppm: 80%

## CC[C@H]1CCC[C@H](O[C@H]2CC[C@H](N(C)C)[C@@H](C)O2)[C@@H](C)C(=O)C2=C[C@@H]3[C@@H](C=C(C)[C@@H]4C[C@@H](O[C@@H]5O[C@@H](C)[C@H](OC)[C@@H](OC)[C@H]5OC)C[C@@H]34)[C@@H]2CC(=O)O1 [A83543D]
[1]; topical
  mortality at 0.5 ppm: 58%
  mortality at 1 ppm: 90%
  mortality at 5 ppm: 100%
  mortality at 10 ppm: 100%
[2]
  mortality at 0.312 ppm: 30%
[3]; 24 hr
  mortality at 0.312 ppm: 0%
  mortality at 0.625 ppm: 0%
  mortality at 1.25 ppm: 10%
  mortality at 2.5 ppm: 20%
  mortality at 5 ppm: 20%
  mortality at 10 ppm: 50%
[3]; 48 hr
  mortality at 0.312 ppm: 0%
  mortality at 0.625 ppm: 60%
  mortality at 1.25 ppm: 90%
  mortality at 2.5 ppm: 100%
  mortality at 5 ppm: 90%
  mortality at 10 ppm: 100%
[4]; 0.312 ppm, 24 hr
  Percent insect mortality: 25%
[4]; 0.312 ppm, 48 hr
  Percent insect mortality: 25%
[4]; 0.625 ppm, 24 hr
  Percent insect mortality: 50%
[4]; 0.625 ppm, 48 hr
  Percent insect mortality: 75%
[4]; 1.25 ppm, 24 hr
  Percent insect mortality: 80%
[4]; 1.25 ppm, 48 hr
  Percent insect mortality: 90%
[4]; 2.5 ppm, 24 hr
  Percent insect mortality: 90%
[4]; 2.5 ppm, 48 hr
  Percent insect mortality: 100%
[4]; 5 ppm, 24 hr
  Percent insect mortality: 90%
[4]; 5 ppm, 48 hr
  Percent insect mortality: 100%
[4]; 10 ppm, 24 hr
  Percent insect mortality: 100%
[4]; 10 ppm, 48 hr
  Percent insect mortality: 100%
[5]; 10 mg/kg IP, bled 30 min
  % Activity LBF: 0%
[5]; 10 mg/kg IP, bled 5 hr
  % Activity LBF: 0%
[5]; 10 mg/kg IP, bled 24 hr
  % Activity LBF: 0%
[5]; 30 mg/kg IP, bled 30 min
  % Activity LBF: 0%
[5]; 30 mg/kg IP, bled 5 hr
  % Activity LBF: 0%
[5]; 30 mg/kg IP, bled 24 hr
  % Activity LBF: 0%
[5]; 50 mg/kg IP, bled 30 min
  % Activity LBF: 75%
[5]; 50 mg/kg IP, bled 5 hr
  % Activity LBF: 0%
[5]; 50 mg/kg IP, bled 24 hr
  % Activity LBF: 25%
[6]; 10 mg/kg IP, bled 30 min
  % Activity ASF: 0%
[6]; 10 mg/kg IP, bled 5 hr
  % Activity ASF: 0%
[6]; 10 mg/kg IP, bled 24 hr
  % Activity ASF: 10%
[6]; 30 mg/kg IP, bled 30 min
  % Activity ASF: 0%
[6]; 30 mg/kg IP, bled 5 hr
  % Activity ASF: 0%
[6]; 30 mg/kg IP, bled 24 hr
  % Activity ASF: 0%
[6]; 50 mg/kg IP, bled 30 min
  % Activity ASF: 0%
[6]; 50 mg/kg IP, bled 5 hr
  % Activity ASF: 0%
[6]; 50 mg/kg IP, bled 24 hr
  % Activity ASF: 0%

## CNC(=O)ON=C(C)SC [methomyl, reference compound]
[7]; 24 h, 1 day after treatment
  mortality at 63 ppm: 100%
  mortality at 125 ppm: 100%
  mortality at 250 ppm: 100%
  mortality at 500 ppm: 100%
[7]; 120 h, 5 days after treatment
  mortality at 63 ppm: 20%
  mortality at 125 ppm: 35%
  mortality at 250 ppm: 85%
  mortality at 500 ppm: 90%
[7]; 168 h, 7 days after treatment
  mortality at 63 ppm: 15%
  mortality at 125 ppm: 40%
  mortality at 250 ppm: 45%
  mortality at 500 ppm: 85%
[7]; 336 h, 14 days after treatment
  mortality at 63 ppm: 0%
  mortality at 125 ppm: 20%
  mortality at 250 ppm: 40%
  mortality at 500 ppm: 60%
[8]
  LC50: 6 µg/mL (≈ 37 µM)
[9]
  LC50: 5.4 µg/mL (≈ 33.3 µM)
[10]
  LC50: 71.4 µg/mL (≈ 440 µM)
[11]
  LC50: 11.4 µg/mL (≈ 70.3 µM)
[12]
  LC50: 14.5 µg/mL (≈ 89.4 µM)

## CC[C@H]1CCC[C@H](O[C@H]2CC[C@H](NC)[C@@H](C)O2)[C@@H](C)C(=O)C2=C[C@@H]3[C@@H](C=C[C@@H]4C[C@@H](O[C@@H]5O[C@@H](C)[C@H](OC)[C@@H](OC)[C@H]5OC)C[C@@H]34)[C@@H]2CC(=O)O1 [A83543B]
[1]; [14]
  mortality at 0.5 ppm: 35%
[1]; 1 ppm, topical pipet, one day
  mortality at 1 ppm: 80%
[1]; 5 ppm, topical pipet, one day
  mortality at 5 ppm: 100%
[1]; 10 ppm, topical pipet, one day
  mortality at 10 ppm: 100%
[13]
  MIC: 0.016 µg/mL (≈ 0.0223 µM)
[2]
  mortality at 0.312 ppm: 60%

## CC[C@H]1CCC[C@H](O[C@H]2CC[C@H](N)[C@@H](C)O2)[C@@H](C)C(=O)C2=C[C@@H]3[C@@H](C=C[C@@H]4C[C@@H](O[C@@H]5O[C@@H](C)[C@H](OC)[C@@H](OC)[C@H]5OC)C[C@@H]34)[C@@H]2CC(=O)O1 [A83543C]
[1]; [14]
  mortality at 0.5 ppm: 5%
[1]; 1 ppm, topical pipet, one day
  mortality at 1 ppm: 85%
[1]; 5 ppm, topical pipet, one day
  mortality at 5 ppm: 93%
[1]; 10 ppm, topical pipet, one day
  mortality at 10 ppm: 100%
[13]
  MIC: 0.031 µg/mL (≈ 0.044 µM)
[2]
  mortality at 0.312 ppm: 60%
